Results from US20220071952A1, “METHODS OF TREATING AND PREVENTING HEPATOTOXICITY” (Natreon, Inc., priority 2020, published 2022).
“And” between values parts separate entries of the source, which are not always exact repeats. Equal entries are not always repeated.

Tests used:
[1] = test system: CCl4-induced hepatotoxicity in mice; assay: Synergistic hepatoprotective activity of DBPs against CCl4-induced hepatotoxicity (Example IV); conditions: for ACP / ALP / ALT / AST / Total Protein: CCl4 1 ml/kg, mean ± SEM, n=4
[2] = test system: alcohol-induced hepatotoxicity in mice; assay: Synergistic hepatoprotective activity of DBPs against alcohol-induced hepatotoxicity (Example IV); conditions: for ACP / ALP / ALT / AST / Total Protein: alcohol 5 g/kg, mean ± SEM, n=4
Procedure: Hepatotoxicity was induced by oral administration of alcohol (ethanol: 5 g/kg) from stock 400 mg/ml twice daily for 15 days.
3-OH-DBP and 3,8-(OH)2-DBP were each separately suspended in 0.3% CMC and administered at a dose of 10 mg/kg body weight per orally for 15 days. During the 15 days treatment, body weight, food intake, and water intake were monitored at regular intervals. Following 15 days of treatment physical parameters (relative organ weight) and biochemical parameters (plasma total protein content, ALT, AST, ALP, and ACP) were studied.
3-OH-DBP (2 mg/kg body weight, 10 mg/kg body weight);
3,8-(OH)2-DBP (10 mg/kg body weight, 50 mg/kg body weight); and

[3] = test system: CCl4-induced hepatotoxicity in mice; assay: Carbon tetrachloride (CCl4)-induced hepatotoxicity in mice, serum biochemical parameters (Example II); type: in vivo, Swiss albino mice; conditions: for ALT / AST / MDA / Total Bilirubin / Total Protein: 10 mg/kg p.o. 7 days + CCl4 (30%) 1 ml/kg i.p., serum, mean ± SD, n=6
Procedure: Swiss albino mice of both sexes, weighing approximately 25-30 g, were obtained from National Research Institute of Ayurveda for Drug Development (Govt. of India), Kolkata, and were housed in polypropylene cages at 22±3° C., relative air humidity of 45 to 55%, with 12.00 hr light and dark cycle (lighting on from 6:00 AM to 6:00 PM) and were provided standard pellet chow (carbohydrate 65.5%, protein 17.6%, fat 6.6%) and distilled water ad libitum. The mice were acclimatized for one week in the laboratory conditions before being used in the experiment. All experiments were conducted between 10.00 hr and 14.00 hr. Principles of laboratory animals care (NIH publication no. 85-23, revised 1985) were followed.

[4] = test system: alcohol-induced hepatotoxicity in mice; assay: Alcohol (ethanol)-induced hepatotoxicity in mice, biochemical and physical parameters (Example III); type: in vivo, Swiss Albino mice; conditions: for Relative organ weight (w.r.t body weight) Kidney / Relative organ weight (w.r.t body weight) Liver / ACP / ALP / ALT(SGPT) / AST(SGOT) / Total Protein: 10 mg/kg p.o. + alcohol 5 g/kg p.o. twice daily, mean ± SD; for ACP / ALP / ALT(SGPT) / AST(SGOT) / Total Protein: plasma
Procedure: Swiss Albino male and female mice weighing approximately 30±5 g, 2 month old mice were obtained from National Research Institute of Ayurveda for Drug Development (Govt. of India), Kolkata, and were housed in polypropylene cages at 22±3° C., relative air humidity of 45 to 55%, with 12.00 hr light & dark cycle (lighting on from 6:00 AM to 6:00 PM). Mice were provided a standard pellet chow diet (carbohydrate 65.5%, protein 17.6%, fat 6.6%) and distilled water ad libitum. The mice were acclimatized for one week in the laboratory conditions, before being used in the experiment. All experiments were conducted between 10.00 hr and 14.00 hr. Principles of laboratory animals care (NIH publication no. 85-23, revised 1985) were followed.
In the present study simultaneous administration of alcohol (ethanol) and treatment with 3-OH-DBP and 3,8-(OH)2-DBP was done.
Vehicle control animals (“Con Veh”) were administered 0.3% CMC orally for 15 days.
Animals receiving ethanol (“Alc+0.3 CMC”, “3-OH-DBP+Alc”, “3,8-(OH)2-DBP+Alc”) were administered ethanol in 0.3% CMC orally as discussed above.
Results were expressed in terms of mean±SD (n=8). The data were subjected to one way ANOVA followed by Tukey's test using GraphPad Prism 4.0 software to establish statistical significance (*p<0.05, **p<0.01, ***p<0.001 vs. vehicle control; # p<0.05, ## p<0.01, ### p<0.001 vs. animals administered ethanol only).

[5] = female mice, doses 3-OH-DBP 2, 3,8-(OH)2-DBP 10, 1:5 combination 12 mg/kg b.w.
[6] = female mice, doses 3-OH-DBP 10, 3,8-(OH)2-DBP 50, 1:5 combination 60 mg/kg b.w.
[7] = male mice, doses 3-OH-DBP 2, 3,8-(OH)2-DBP 10, 1:5 combination 12 mg/kg b.w.
[8] = male mice, doses 3-OH-DBP 10, 3,8-(OH)2-DBP 50, 1:5 combination 60 mg/kg b.w.
[9] = female mice, doses 3-OH-DBP 2, 3,8-(OH)2-DBP 10, combination 12 mg/kg b.w.
[10] = female mice (Table 14), 10 mg/kg p.o.
[11] = male mice (Table 13), 10 mg/kg p.o.

Compound: O=c1oc2cc(O)ccc2c2ccc(O)cc12 [3,8-(OH)2-DBP, 3,8-dihydroxy-dibenzo-alpha-pyrone]
- hepatoprotective activity (conclusion, Tables 19 and 20) ([1]; CCl4-induced hepatotoxicity, male and female mice): hepatoprotective activity in a dose dependent manner
- ACP [1, 5]: 48 ± 4 (c) U/L
- ALP [1, 5]: 89 ± 5.1 (c) IU/L
- ALT [1, 5]: 68 ± 6.5 (c) IU/L
- AST [1, 5]: 57 ± 8 (c) ^ IU/L
- Total Protein [1, 5]: 4.9 ± 0.21 g/dL
- ACP [1, 6]: 28 ± 5.1 (f) U/L
- ALP [1, 6]: 68 ± 8 (f) ^ IU/L
- ALT [1, 6]: 62 ± 3.6 (f) IU/L
- AST [1, 6]: 41 ± 14^###(f) IU/L
- Total Protein [1, 6]: 6.6 ± 0.16 g/dL
- ACP, difference in values from CCl4 treated mice [1, 5]: B = (a-c = 32) U/L
- ALP, difference in values from CCl4 treated mice [1, 5]: B = (a-c = 1) IU/L
- ALT, difference in values from CCl4 treated mice [1, 5]: B = (a-c = 19) IU/L
- AST, difference in values from CCl4 treated mice [1, 5]: B = (a-c = 48) IU/L
- ACP, difference in values from CCl4 treated mice [1, 6]: E = (a-f = 52) U/L
- ALP, difference in values from CCl4 treated mice [1, 6]: E = (a-f = 22) IU/L
- ALT, difference in values from CCl4 treated mice [1, 6]: E = (a-f = 25) IU/L
- AST, difference in values from CCl4 treated mice [1, 6]: E = (a-f = 64) IU/L
- ACP [1, 7]: 48 ± 7.2***,#(c) U/L
- ALP [1, 7]: 89 ± 5.1*,,#(c) IU/L
- ALT [1, 7]: 68 ± 5.1 (c) IU/L
- AST [1, 7]: 70 ± 4.4##(c) IU/L
- Total Protein [1, 7]: 6.3 ± 0.36 g/dL
- ACP [1, 8]: 46 ± 2.5 (f)^ U/L
- ALP [1, 8]: 68 ± 8##(f) ^ IU/L
- ALT [1, 8]: 60 ± 2.5 (f) IU/L
- AST [1, 8]: 58 ± 1.9###(f)^ IU/L
- Total Protein [1, 8]: 6 ± 0.40 g/dL
- Relative liver weight ([1]; male mice, CCl4 study of Example IV): significantly increased
- ACP, difference in values from CCl4 treated mice [1, 7]: B = (a-c = 38) U/L
- ALP, difference in values from CCl4 treated mice [1, 7]: B = (a-c = 53) IU/L
- ALT, difference in values from CCl4 treated mice [1, 7]: B = (a-c = 12) IU/L
- AST, difference in values from CCl4 treated mice [1, 7]: B = (a-c = 33) IU/L
- ACP, difference in values from CCl4 treated mice [1, 8]: E = (a-f = 20) U/L
- ALP, difference in values from CCl4 treated mice [1, 8]: E = (a-f = 74) IU/L
- ALT, difference in values from CCl4 treated mice [1, 8]: E = (a-f = 20) IU/L
- AST, difference in values from CCl4 treated mice [1, 8]: E = (a-f = 45) IU/L
- hepatoprotective activity (conclusion, Tables 17 and 18) ([2]; alcohol-induced hepatotoxicity, male and female mice): hepatoprotective activity in a dose dependent manner
- ACP [2, 9]: 15.6 ± 0.99 U/L
- ALP [2, 9]: 84 ± 6.5 (c) IU/L
- ALT [2, 9]: 45.80 ± 5.76 (c)^ IU/L
- AST [2, 9]: 64.09 ± 7.34 (c)^ IU/L
- Total Protein [2, 9]: 6.53 ± 0.10 g/dL
- Relative liver weight ([2]; female mice, alcohol study of Example IV): significantly decreased
- ACP, difference in values from alcohol treated mice [2, 9]: (c) B = (a-c = 5.67) U/L
- ALP, difference in values from alcohol treated mice [2, 9]: B = (a-c = 55.35) IU/L
- ALT, difference in values from alcohol treated mice [2, 9]: B = (a-c = 43.04) IU/L
- AST, difference in values from alcohol treated mice [2, 9]: B = (a-c = 4.9) IU/L
- ACP [2, 7]: 11.2 ± 1.44 (c) U/L
- ALP [2, 7]: 88.1 ± 15.8 (c) IU/L
- ALT [2, 7]: 53.9 ± 3.99 (c) IU/L
- AST [2, 7]: 25.6 ± 3.10 (c) IU/L
- Total Protein [2, 7]: 7.65 ± 0.34 g/dL
- ACP [2, 8]: 9.19 ± 0.71 (f)^ U/L
- ALP [2, 8]: 78 ± 7.21 (f) IU/L
- ALT [2, 8]: 64.3 ± 2(f) ^ IU/L
- AST [2, 8]: 24.8 ± 2.19 (f) IU/L
- Total Protein [2, 8]: 8.60 ± 0.35 g/dL
- ACP, difference in values from alcohol treated mice [2, 7]: B = (a-c = 7.4) U/L
- ALP, difference in values from alcohol treated mice [2, 7]: B = (a-c = 45.9) IU/L
- ALT, difference in values from alcohol treated mice [2, 7]: B = (a-c = 52.1) IU/L
- AST, difference in values from alcohol treated mice [2, 7]: B = (a-c = 35.1) IU/L
- ACP, difference in values from alcohol treated mice [2, 8]: E = (a-f = 9.41) U/L
- ALP, difference in values from alcohol treated mice [2, 8]: E = (a-f = 56) IU/L
- ALT, difference in values from alcohol treated mice [2, 8]: E = (a-f = 41.7) IU/L
- AST, difference in values from alcohol treated mice [2, 8]: E = (a-f = 35.9) IU/L
- effect on CCl4-induced hepatotoxicity (ALT, AST, bilirubin, total protein vs CCl4 group) ([3]; 10 mg/kg p.o., mice): significantly attenuated and reversed the CCl4-induced hepatotoxicity
- effect on CCl4-induced lipid peroxidation (MDA) ([3]; 10 mg/kg p.o., mice): significantly lowered CCl4-induced lipid peroxidation
- ALT ([3]; female mice): 60.99 ± 13.49 IU/L
- AST ([3]; female mice): 12.95 ± 2.46 IU/L
- MDA ([3]; female mice): 6.53 ± 0.66 nmol/mL
- Total Bilirubin ([3]; female mice): 0.60 ± 0.18 mg/dL
- Total Protein ([3]; female mice): 4.02 ± 0.3 g/dL
- hepatoprotective activity against carbon tetrachloride-induced liver damage, in comparison to 3-OH-DBP ([3]; females, 10 mg/kg p.o.): better hepatoprotective activity
- ALT ([3]; male mice): 64.78 ± 4.65 IU/L
- AST ([3]; male mice): 13.04 ± 3.74 IU/L
- Total Bilirubin ([3]; male mice): 0.48 ± 0.14 mg/dL
- Total Protein ([3]; male mice): 0.00412 ± 0.00086 g/dL
- MDA ([3]; male mice, 10 mg/kg): 6.59 nmol/mL and 6.59 ± 0.82 nmol/mL
- hepatoprotective activity against carbon tetrachloride-induced liver damage ([3]; males and females, 10 mg/kg p.o.): significant hepatoprotective activity
- hepatoprotective activity against alcohol-induced hepatotoxicity ([4]; 10 mg/kg p.o., 15 days): significant hepatoprotective activity
- effect on alcohol-induced increased plasma ACP [4, 10]: significantly (p<0.05) attenuated
- effect on alcohol-induced increased plasma ALT [4, 10]: significantly (p<0.001) attenuated
- effect on alcohol-induced increased plasma AST [4, 10]: significantly (p<0.05; p<0.01) attenuated
- effect on plasma ALP level compared with ALC group [4, 10]: did not show significant (p>0.05) change
- Relative organ weight (w.r.t body weight) Kidney ([4]; female mice, 15 days): 0.012 ± 0.001
- Relative organ weight (w.r.t body weight) Liver ([4]; female mice, 15 days): 0.048 ± 0.001
- ACP ([4]; female mice, 15 days): 4.31 ± 2.84^## IU/L
- ALP ([4]; female mice, 15 days): 43.12 ± 5.84 IU/L
- ALT(SGPT) ([4]; female mice, 15 days): 6.72 ± 0.727^## IU/L
- AST(SGOT) ([4]; female mice, 15 days): 3.62 ± 1.27^## IU/L
- Total Protein ([4]; female mice, 15 days): 3.229 ± 0.187 g/dL
- effect on alcohol-induced increased plasma ACP [4, 11]: significantly (p<0.05) attenuated
- effect on alcohol-induced increased plasma ALT [4, 11]: significantly (p<0.05) attenuated
- effect on alcohol-induced increased plasma AST [4, 11]: significantly (p<0.05) attenuated
- Relative organ weight (w.r.t body weight) Kidney ([4]; male mice, 15 days): 0.016 ± 0.002
- Relative organ weight (w.r.t body weight) Liver ([4]; male mice, 15 days): 0.044 ± 0.005
- ACP ([4]; male mice, 15 days): 4.29 ± 1.22^## IU/L
- ALP ([4]; male mice, 15 days): 27.39 ± 6.15 ^ IU/L
- ALT(SGPT) ([4]; male mice, 15 days): 9.98 ± 3.44^# IU/L
- AST(SGOT) ([4]; male mice, 15 days): 4.51 ± 1.80^# IU/L
- Total Protein ([4]; male mice, 15 days): 3.229 ± 0.187^ g/dl
